Drawing on PubChem BioAssay AID330 (DTP/NCI, 2004), this text covers T/C for 23 compounds.

The test system of this assay is P388 leukemia ip, CD2F1 mice, survival T/C. Description: NCI In Vivo Anticancer Drug Screen. Data for tumor model P388 Leukemia (intraperitoneal) in CD2F1 (CDF1) mice. To be noted: endpoint: median survival time, higher = longer survival. Put shortly:
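Mice carrying the transplanted tumor received test compound or vehicle. Survival was recorded in each group, and the value is the treated-group measurement divided by that of the vehicle-treated control group.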

Where [1] appears, read: dose: 50.0 mg/kg/injection, schedule: Q01DX005 (ip), vehicle: saline with Tween-80.
The mark [2] stands for this setting: dose: 100.0 mg/kg/injection, schedule: Q01DX005 (ip), vehicle: saline with Tween-80.
Where [3] appears, read: dose: 200.0 mg/kg/injection, schedule: Q01DX005 (ip), vehicle: saline with Tween-80.
[4] abbreviates: dose: 60.0 mg/kg/injection, schedule: Q01DX005 (ip), vehicle: Klucel (hydroxypropylcellulose) (HPC).
Setting [5] is: dose: 120.0 mg/kg/injection, schedule: Q01DX005 (ip), vehicle: Klucel (hydroxypropylcellulose) (HPC).
The mark [6] stands for this setting: dose: 50.0 mg/kg/injection, schedule: Q01DX005 (ip), vehicle: Klucel (hydroxypropylcellulose) (HPC).
Setting [7] is: dose: 100.0 mg/kg/injection, schedule: Q01DX005 (ip), vehicle: Klucel (hydroxypropylcellulose) (HPC).
[8] abbreviates: dose: 200.0 mg/kg/injection, schedule: Q01DX005 (ip), vehicle: Klucel (hydroxypropylcellulose) (HPC).
Where [9] appears, read: dose: 50.0 mg/kg/injection, schedule: Q01DX009 (ip), vehicle: Klucel (hydroxypropylcellulose) (HPC).
Setting [10] is: dose: 100.0 mg/kg/injection, schedule: Q01DX009 (ip), vehicle: Klucel (hydroxypropylcellulose) (HPC).
Where [11] appears, read: dose: 200.0 mg/kg/injection, schedule: Q01DX009 (ip), vehicle: Klucel (hydroxypropylcellulose) (HPC).
[12] abbreviates: dose: 60.0 mg/kg/injection, schedule: Q01DX005 (ip), vehicle: saline.
[13] abbreviates: dose: 120.0 mg/kg/injection, schedule: Q01DX005 (ip), vehicle: saline.
Setting [14] is: dose: 50.0 mg/kg/injection, schedule: Q01DX009 (ip), vehicle: saline.

Each structure is given as a SMILES string. Values joined by “and” are separate entries in the source; they are usually repeats but may differ in a detail not shown here. Equal values may be shown once. Toxic doses and inconclusive results are not listed.

Take `Cn1nc(C(N)=O)c(=O)[nH]c1=O`: the T/C under setting [1] was 104 % of control, the T/C under setting [2] was 97 % of control and the T/C under setting [3] is 103 % of control.

As for `CN1C(=S)C(=N)OC1c1ccc(Cl)cc1Cl` (stereo unspecified), the T/C is 102 % of control (dose: 60.0 mg/kg/injection, schedule: Q01DX005 (ip), vehicle: Klucel + Tween-80); 94 % of control (dose: 120.0 mg/kg/injection, schedule: Q01DX005 (ip), vehicle: Klucel + Tween-80); 96 % of control (dose: 240.0 mg/kg/injection, schedule: Q01DX005 (ip), vehicle: Klucel + Tween-80).

Turning to `O=NN(CC(=O)O)CC1(O)OCC(O)C(O)C1O` (stereo unspecified), the T/C (dose: 50.0 mg/kg/injection, schedule: Q01DX005 (ip), vehicle: saline) is 94 % of control; the T/C (dose: 100.0 mg/kg/injection, schedule: Q01DX005 (ip), vehicle: saline) is 105 % of control; the T/C (dose: 200.0 mg/kg/injection, schedule: Q01DX005 (ip), vehicle: saline) was 103 % of control.

On to `C=COC(=O)C(Cc1ccccc1)NC(=O)OCc1ccccc1` (stereo unspecified), for which the T/C runs as follows: (dose: 12.5 mg/kg/injection, schedule: Q01DX005 (ip), vehicle: saline with Tween-80) 106 % of control; (dose: 25.0 mg/kg/injection, schedule: Q01DX005 (ip), vehicle: saline with Tween-80) 100 % of control; under setting [1], 103 % of control; under setting [2], 103 % of control; under setting [3], 100 % of control.

For `NC(=O)NO`, the T/C by setting is: (dose: 112.0 mg/kg/injection, schedule: Q03HX024 (ip), vehicle: saline) 83 % of control; (dose: 200.0 mg/kg/injection, schedule: Q01DX009 (ip), vehicle: saline) 160 % of control; (dose: 300.0 mg/kg/injection, schedule: Q01DX009 (ip), vehicle: saline) 185 % of control; (dose: 450.0 mg/kg/injection, schedule: Q01DX009 (ip), vehicle: saline) 160 % of control and 184 % of control; (dose: 500.0 mg/kg/injection, schedule: Q01DX009 (ip), vehicle: saline) 200 % of control; (dose: 750.0 mg/kg/injection, schedule: Q01DX009 (ip), vehicle: saline) 100 % of control and 98 % of control. Moreover, the T/C (dose: 2000.0 mg/kg/injection, schedule: Q01DX001 (ip), vehicle: saline) is 98 % of control.

`C[Si](C)(C)Cn1cc(F)c(=O)n(C[Si](C)(C)C)c1=O`: the T/C reads like this: under setting [4], 103 % of control; under setting [5], 103 % of control; (dose: 240.0 mg/kg/injection, schedule: Q01DX005 (ip), vehicle: Klucel (hydroxypropylcellulose) (HPC)) 97 % of control.

Consider `CCc1nc2c(cnn2C)c(=O)n1C`, for which the T/C is, setting by setting: under setting [6], 89 % of control; under setting [7], 98 % of control; under setting [8], 90 % of control.

`C=C1C(=O)OC2CCCC(O)C12` (stereo unspecified): the T/C runs as follows: (dose: 50.0 mg/kg/injection, schedule: Q04DX003 (ip), vehicle: Klucel (hydroxypropylcellulose) (HPC)) 106 % of control and 96 % of control; (dose: 100.0 mg/kg/injection, schedule: Q04DX003 (ip), vehicle: Klucel (hydroxypropylcellulose) (HPC)) 104 % of control; (dose: 200.0 mg/kg/injection, schedule: Q04DX003 (ip), vehicle: Klucel (hydroxypropylcellulose) (HPC)) 115 % of control.

For `Cc1cccc2c1CN1CC(=O)NC1=N2`, the T/C is 103 % of control under setting [9], 97 % of control under setting [10] and 86 % of control under setting [11].

Consider `CN1C(C)(C)CC(O)CC1(C)C`, for which the T/C runs as follows: under setting [12], 102 % of control; under setting [13], 102 % of control.

For the compound `O=C(NC(Cc1ccccc1)C(=O)O)C(=O)c1c[nH]c2ccc(Cl)cc12` (stereo unspecified), the T/C was 100 % of control (dose: 60.0 mg/kg/injection, schedule: Q01DX005 (ip), vehicle: saline with Tween-80); 96 % of control (dose: 120.0 mg/kg/injection, schedule: Q01DX005 (ip), vehicle: saline with Tween-80); 94 % of control (dose: 240.0 mg/kg/injection, schedule: Q01DX005 (ip), vehicle: saline with Tween-80).

Regarding `OCCCOCCCOCCCOCCCO`, the T/C by setting is: (dose: 100.0 mg/kg/injection, schedule: Q01DX001 (ip), vehicle: saline) 101 % of control; (dose: 200.0 mg/kg/injection, schedule: Q01DX001 (ip), vehicle: saline) 108 % of control; (dose: 400.0 mg/kg/injection, schedule: Q01DX001 (ip), vehicle: saline) 101 % of control.

Take `COc1ccccc1N=Cc1ccc(C=Nc2ccccc2OC)cc1`: the T/C reads like this: under setting [9], 97 % of control; under setting [10], 98 % of control; under setting [11], 101 % of control and 88 % of control.

On to `NCCNCC[OH2+].NCCNCC[OH2+].[Ni+2].[O-][Cl+3]([O-])([O-])[O-]`, for which the T/C is 100 % of control (dose: 12.5 mg/kg/injection, schedule: Q01DX009 (ip), vehicle: saline); 93 % of control (dose: 25.0 mg/kg/injection, schedule: Q01DX009 (ip), vehicle: saline); 106 % of control and 93 % of control under setting [14].

`CCN(CC)[Si](C)(C)C`: the T/C was 93 % of control under setting [12] and 94 % of control under setting [13].

`BrCc1cn(Cc2ccccc2)nn1`: the T/C was 97 % of control under setting [14] and 97 % of control (dose: 100.0 mg/kg/injection, schedule: Q01DX009 (ip), vehicle: saline).

For `O=C1C=C2CCCCCCCCCCC2CC1` (stereo unspecified), the T/C runs as follows: under setting [6], 103 % of control; under setting [7], 92 % of control; under setting [8], 92 % of control.

Take `O=c1[nH]c2ccccc2c(=O)n1-c1ccco1`: the T/C is 100 % of control (dose: 100.0 mg/kg/injection, schedule: Q04DX002 (ip), vehicle: saline); 102 % of control (dose: 200.0 mg/kg/injection, schedule: Q04DX002 (ip), vehicle: saline); 101 % of control (dose: 400.0 mg/kg/injection, schedule: Q04DX002 (ip), vehicle: saline).

Regarding `COc1ccc2c(c1)[C@@]13CCCC[C@H]1[C@@H](C2)[N+](CC1CC1)=CC3=NO`, the T/C reads like this: under setting [6], 111 % of control; under setting [7], 102 % of control; under setting [8], 105 % of control.

As to `CCCNC(=O)OCc1c(COC(=O)NCCC)c(-c2ccc(Cl)c(Cl)c2)n2c1CCC2`, the T/C (dose: 12.5 mg/kg/injection, schedule: Q01DX009 (ip), vehicle: distilled water + Tween-80) is 120 % of control; the T/C (dose: 20.0 mg/kg/injection, schedule: Q01DX009 (ip), vehicle: distilled water + Tween-80) is 154 % of control; the T/C (dose: 40.0 mg/kg/injection, schedule: Q01DX009 (ip), vehicle: distilled water + Tween-80) is 154 % of control and 172 % of control; the T/C (dose: 50.0 mg/kg/injection, schedule: Q01DX009 (ip), vehicle: distilled water + Tween-80) is 166 % of control; the T/C (dose: 80.0 mg/kg/injection, schedule: Q01DX009 (ip), vehicle: distilled water + Tween-80) was 102 % of control and 91 % of control; the T/C (dose: 100.0 mg/kg/injection, schedule: Q01DX009 (ip), vehicle: distilled water + Tween-80) was 95 % of control.

Consider `Cc1ccc(NCN2C(=O)c3ccccc3C2=O)c(C)n1`, for which the T/C is 92 % of control under setting [4] and 89 % of control under setting [5].

Regarding `CCOC(=O)c1coc(N)n1`, the T/C is 98 % of control (dose: 12.5 mg/kg/injection, schedule: Q01DX009 (ip), vehicle: other); 100 % of control (dose: 25.0 mg/kg/injection, schedule: Q01DX009 (ip), vehicle: other); 106 % of control (dose: 50.0 mg/kg/injection, schedule: Q01DX009 (ip), vehicle: other); 107 % of control (dose: 100.0 mg/kg/injection, schedule: Q01DX009 (ip), vehicle: other); 103 % of control (dose: 200.0 mg/kg/injection, schedule: Q01DX009 (ip), vehicle: other).

Consider `C=C1C(=O)OC2CC(C)CCC/C(CO)=C/C(OC(=O)/C(=C/CO)CO)C12` (stereo unspecified), for which the T/C is 98 % of control (dose: 7.0 mg/kg/injection, schedule: Q01DX005 (ip), vehicle: saline); 101 % of control (dose: 14.0 mg/kg/injection, schedule: Q01DX005 (ip), vehicle: saline); 114 % of control (dose: 28.0 mg/kg/injection, schedule: Q01DX005 (ip), vehicle: saline).
